PubChem BioAssay AID1963425 (Molecular Pharmacology Branch, DTP, NCI, 2024)

Test system: 323965-272-R-J2-PDC complex spheroid growth, % test/control
Experiment: Anticancer human tumor 323965-272-R-J2-PDC patient-derived pancreatic carcinoma cell line growth inhibition [Asc]
Conditions: for IC50: curve of first compound; for viability, T/C: stronger effect = lower value
Summary of the method: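 Spheroid model: tumor line + HUVEC + hMSC. Single agents and combinations; top conc. at/near clinical Cmax (10 microM if undetermined), half-log dilutions. DMSO stocks at 800-fold test concentration.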
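Further: compound exposure lasted 7 days starting three days after spheroid seeding.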
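Wherever viability, T/C is given: 100% = DMSO vehicle control wells with viability set relative to vehicle.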

For Cn1ncnc1[C@H]1c2n[nH]c(=O)c3cc(F)cc(c23)N[C@@H]1c1ccc(F)cc1 + CCN1C(C(=O)NC23CCC(C(=O)O)(CC2)CC3)C(c2cccc(Cl)c2F)C2(C(=O)Nc3cc(Cl)ccc32)C12CCCCC2, the IC50 (second compound 0.00949 µM) was greater than 100 nM, the IC50 (second compound 0.03 µM) was greater than 100 nM and the IC50 (second compound 0.0949 µM) was greater than 100 nM. For the same molecule, the IC50 (second compound 0.3 µM) was greater than 100 nM, the IC50 (second compound 0.949 µM) was greater than 100 nM and the IC50 (second compound 3 µM) was greater than 100 nM. It also gave a viability, T/C (second compound 0.00949 µM, first compound 0.000316 µM) of 114%, a viability, T/C (second compound 0.00949 µM, first compound 0.001 µM) of 104% and a viability, T/C (second compound 0.00949 µM, first compound 0.00316 µM) of 108%. It also gave a viability, T/C (second compound 0.00949 µM, first compound 0.01 µM) of 113%, a viability, T/C (second compound 0.00949 µM, first compound 0.0316 µM) of 112% and a viability, T/C (second compound 0.00949 µM, first compound 0.1 µM) of 98.3%. It also gave a viability, T/C (second compound 0.03 µM, first compound 0.000316 µM) of 124%, a viability, T/C (second compound 0.03 µM, first compound 0.001 µM) of 116% and a viability, T/C (second compound 0.03 µM, first compound 0.00316 µM) of 122%. The viability, T/C (second compound 0.03 µM, first compound 0.01 µM) was 105%, the viability, T/C (second compound 0.03 µM, first compound 0.0316 µM) was 116% and the viability, T/C (second compound 0.03 µM, first compound 0.1 µM) was 108%. It also gave a viability, T/C (second compound 0.0949 µM, first compound 0.000316 µM) of 123%, a viability, T/C (second compound 0.0949 µM, first compound 0.001 µM) of 116% and a viability, T/C (second compound 0.0949 µM, first compound 0.00316 µM) of 104%. For the same molecule, the viability, T/C (second compound 0.0949 µM, first compound 0.01 µM) was 96.6%, the viability, T/C (second compound 0.0949 µM, first compound 0.0316 µM) was 103% and the viability, T/C (second compound 0.0949 µM, first compound 0.1 µM) was 102%. For the same molecule, the viability, T/C (second compound 0.3 µM, first compound 0.000316 µM) was 115%, the viability, T/C (second compound 0.3 µM, first compound 0.001 µM) was 118% and the viability, T/C (second compound 0.3 µM, first compound 0.00316 µM) was 125%. The viability, T/C (second compound 0.3 µM, first compound 0.01 µM) was 108%, the viability, T/C (second compound 0.3 µM, first compound 0.0316 µM) was 114% and the viability, T/C (second compound 0.3 µM, first compound 0.1 µM) was 77.7%. It also gave a viability, T/C (second compound 0.949 µM, first compound 0.000316 µM) of 118%, a viability, T/C (second compound 0.949 µM, first compound 0.001 µM) of 114% and a viability, T/C (second compound 0.949 µM, first compound 0.00316 µM) of 110%. It also gave a viability, T/C (second compound 0.949 µM, first compound 0.01 µM) of 113%, a viability, T/C (second compound 0.949 µM, first compound 0.0316 µM) of 117% and a viability, T/C (second compound 0.949 µM, first compound 0.1 µM) of 93.1%. It also gave a viability, T/C (second compound 3 µM, first compound 0.000316 µM) of 118%, a viability, T/C (second compound 3 µM, first compound 0.001 µM) of 109% and a viability, T/C (second compound 3 µM, first compound 0.00316 µM) of 96%. For the same molecule, the viability, T/C (second compound 3 µM, first compound 0.01 µM) was 105%, the viability, T/C (second compound 3 µM, first compound 0.0316 µM) was 96.9% and the viability, T/C (second compound 3 µM, first compound 0.1 µM) was 85.8%.

NC(=O)C(=Cn1cnc(-c2cc(C(F)(F)F)cc(C(F)(F)F)c2)n1)c1cncnc1 + Cc1c(S(C)(=O)=O)c(-c2cc(F)cc(N3CCN(c4ccc(NS(=O)(=O)c5ccc(NC(CCN6CCC(C(=O)OCCCP(=O)(O)O)CC6)CSc6ccccc6)c(S(=O)(=O)C(F)(F)F)c5)cc4)CC3)c2)c(-c2ccc(Cl)cc2)n1C(C)C showed an IC50 (second compound 0.0316 µM) greater than 300 nM, an IC50 (second compound 0.1 µM) greater than 300 nM and an IC50 (second compound 0.316 µM) greater than 300 nM. It also gave an IC50 (second compound 1 µM) of 205 nM, an IC50 (second compound 3.16 µM) of 114 nM and an IC50 (second compound 10 µM) of 63.7 nM. The viability, T/C (second compound 0.0316 µM, first compound 0.000949 µM) was 111%, the viability, T/C (second compound 0.0316 µM, first compound 0.003 µM) was 96.9% and the viability, T/C (second compound 0.0316 µM, first compound 0.00949 µM) was 115%. It also gave a viability, T/C (second compound 0.0316 µM, first compound 0.03 µM) of 89.1%, a viability, T/C (second compound 0.0316 µM, first compound 0.0949 µM) of 81.5% and a viability, T/C (second compound 0.0316 µM, first compound 0.3 µM) of 55.8%. For the same molecule, the viability, T/C (second compound 0.1 µM, first compound 0.000949 µM) was 95.2%, the viability, T/C (second compound 0.1 µM, first compound 0.003 µM) was 92.8% and the viability, T/C (second compound 0.1 µM, first compound 0.00949 µM) was 92%. For the same molecule, the viability, T/C (second compound 0.1 µM, first compound 0.03 µM) was 94.8%, the viability, T/C (second compound 0.1 µM, first compound 0.0949 µM) was 78% and the viability, T/C (second compound 0.1 µM, first compound 0.3 µM) was 53.8%. It also gave a viability, T/C (second compound 0.316 µM, first compound 0.000949 µM) of 94%, a viability, T/C (second compound 0.316 µM, first compound 0.003 µM) of 100% and a viability, T/C (second compound 0.316 µM, first compound 0.00949 µM) of 93.3%. For the same molecule, the viability, T/C (second compound 0.316 µM, first compound 0.03 µM) was 84.9%, the viability, T/C (second compound 0.316 µM, first compound 0.0949 µM) was 76.1% and the viability, T/C (second compound 0.316 µM, first compound 0.3 µM) was 49.8%. For the same molecule, the viability, T/C (second compound 1 µM, first compound 0.000949 µM) was 91%, the viability, T/C (second compound 1 µM, first compound 0.003 µM) was 88.6% and the viability, T/C (second compound 1 µM, first compound 0.00949 µM) was 80.2%. It also gave a viability, T/C (second compound 1 µM, first compound 0.03 µM) of 77.6%, a viability, T/C (second compound 1 µM, first compound 0.0949 µM) of 64.4% and a viability, T/C (second compound 1 µM, first compound 0.3 µM) of 42.6%. For the same molecule, the viability, T/C (second compound 3.16 µM, first compound 0.000949 µM) was 79%, the viability, T/C (second compound 3.16 µM, first compound 0.003 µM) was 78.1% and the viability, T/C (second compound 3.16 µM, first compound 0.00949 µM) was 76%. It also gave a viability, T/C (second compound 3.16 µM, first compound 0.03 µM) of 63.1%, a viability, T/C (second compound 3.16 µM, first compound 0.0949 µM) of 55% and a viability, T/C (second compound 3.16 µM, first compound 0.3 µM) of 32.6%. The viability, T/C (second compound 10 µM, first compound 0.000949 µM) was 69.9%, the viability, T/C (second compound 10 µM, first compound 0.003 µM) was 68.7% and the viability, T/C (second compound 10 µM, first compound 0.00949 µM) was 63.1%. The viability, T/C (second compound 10 µM, first compound 0.03 µM) was 63.6%, the viability, T/C (second compound 10 µM, first compound 0.0949 µM) was 43% and the viability, T/C (second compound 10 µM, first compound 0.3 µM) was 30.3%.
